Experimental data published in patent publication US20240401073A1, “ALS INHIBITOR HERBICIDE TOLERANT BETA VULGARIS MUTANTS” (KWS SAAT SE & Co. KGaA, priority 2021, published 2024).

Legend:
[1] = test system: homozygous BvALS_D371E mutants; type: in vivo, Beta vulgaris (sugar beet); conditions: greenhouse, 1× recommended field application concentration, treated when first true leaves appeared, rated 14 days after treatment; growing of first pair of true leaves as indicator
From the text: (§1) The identified ALS mutants have been tested repeatedly in CONVISO® ONE treatments in concentrations used for field treatments as well as in treatment with the individual active ingredients of CONVISO® ONE, Foramsulfuron and Thiencarbazon-methyl, treatment with Pulsar® 40 (active ingredient: Imazamox), treatment with active ingredient Bispyribac, and treatment with Broadway® (active ingredients: Florasulam, Pyroxylam) (Table 1). All herbicide treatments has been conducted with amount corresponding to 1× recommended field application concentration: Offspring seed of both, a plant homozygous and heterozygous for BvALS_D371E mutation as well as the M0-background genotype were sown, cultivated in a greenhouse and transplanted to single pots after emergence. Herbicide treatments were performed when first true leaves appeared.
(§2) Tolerance ratings were taken 14 days after treatment. Growing of the first pair of true leaves was used as indicator for herbicide tolerance.

[2] = test system: heterozygous BvALS_D371E mutants; type: in vivo, Beta vulgaris (sugar beet); conditions: greenhouse, 1× recommended field application concentration, treated when first true leaves appeared, rated 14 days after treatment; growing of first pair of true leaves as indicator
From the text: as §1, §2

[3] = test system: sugar beet mutant line carrying W569L; conditions: WO 2012/049268; cited from earlier work

| SMILES | Herbicide tolerance, Homozygous mutants [1] | Herbicide tolerance, Heterozygous mutants [2] | herbicide tolerance of W569L mutant line [3] |
| --- | --- | --- | --- |
| COc1cc(OC)nc(Oc2cccc(Oc3nc(OC)cc(OC)n3)c2C(=O)O)n1 [Bispyribac] | Tolerant | tolerant |  |
| COc1cc(OC)nc(NC(=O)NS(=O)(=O)c2cc(NC=O)ccc2C(=O)N(C)C)n1 [foramsulfuron] | Tolerant | tolerant | tolerant |
| COC(=O)c1csc(C)c1S(=O)(=O)NC(=O)n1nc(OC)n(C)c1=O [thiencarbazone-methyl] | Tolerant | tolerant | tolerant |
